The results in this text go back to paper PMC5271319, “Identification and Characterization of a 25 kDa Protein That Is Indispensable for the Efficient Saccharification of Eisenia bicyclis in the Digestive Fluid of Aplysia kurodai” (PLoS ONE, 2017).

The experiment deals with T1, EHEP (Eisenia hydrolysis enhancing protein, 25 kDa) (Aplysia kurodai, UniProt A0A1B4XTR1).
T1 construct: native protein purified from digestive fluid; signal peptide 1-16 predicted to be removed; 25 kDa monomer
T1 sequence (A0A1B4XTR1 17-229): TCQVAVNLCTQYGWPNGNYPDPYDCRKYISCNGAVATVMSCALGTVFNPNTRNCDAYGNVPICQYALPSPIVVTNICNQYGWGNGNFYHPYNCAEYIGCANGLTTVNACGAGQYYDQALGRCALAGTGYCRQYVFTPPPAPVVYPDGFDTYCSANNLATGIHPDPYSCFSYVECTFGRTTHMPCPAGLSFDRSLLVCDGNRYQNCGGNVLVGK
Put plainly: co-precipitation, SDS-PAGE of precipitate. It counts as binding. To be noted: 50 and 100 μg in 0.1 ml; 50 mM acetate pH 5.5, 0.1 M NaCl, 10 mM CaCl2; 25 °C, 90 min.

SMILES strings stand for the structures.

`Oc1cc(O)cc(O)c1` [phloroglucinol, 1,3,5-trihydroxybenzene]: the “co-precipitation, SDS-PAGE of precipitate” value was “EHEP was precipitated by phloroglucinol and gallic acid”.

In the case of `O=C(O)c1cc(O)c(O)c(O)c1` [gallic acid], the “co-precipitation, SDS-PAGE of precipitate” value is “EHEP was precipitated by phloroglucinol and gallic acid”.
